The source of these data is patent US6316423A, “Method of treating ischemic, hypoxic and anoxic brain damage” (priority 1999, dated 2001).

SMILES strings stand for the structures.

The target in experiment [1] is T1, Rat A1 adenosine receptor (Rattus norvegicus, UniProt P25099).
T1 construct: A1 adenosine receptors isolated from rats; from tissue
T1 sequence (P25099 1-326): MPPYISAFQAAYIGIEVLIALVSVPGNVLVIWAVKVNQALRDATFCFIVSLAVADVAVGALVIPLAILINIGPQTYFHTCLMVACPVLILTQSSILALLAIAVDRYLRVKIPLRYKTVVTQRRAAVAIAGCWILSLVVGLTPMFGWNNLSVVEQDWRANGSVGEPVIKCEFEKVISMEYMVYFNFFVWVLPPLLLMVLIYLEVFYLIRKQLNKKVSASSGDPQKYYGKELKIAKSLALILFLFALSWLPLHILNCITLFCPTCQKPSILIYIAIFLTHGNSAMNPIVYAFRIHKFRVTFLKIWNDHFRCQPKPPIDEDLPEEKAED
Briefly: Affinity for A1 adenosine receptors isolated from rats. Type of experiment: binding. An excerpt:
These methods are known in the art. For example, the synthesis of these compounds can be guided by U.S. Pat. No. 5,248,770 or by Jacobson et al., Journal of Medicinal Chemistry, 28, 1341-1346 (1985).

For the next experiment, the system named is adenosine A1 receptors. Particulars: cited from earlier work.

Usually Ki stands for a dissociation constant, usually derived from enzyme kinetics or from competition with a known ligand. Low values mean a stronger hold on the target, high ones a looser hold on the target. For `NCCCNC(=O)Cc1ccc(NC(=O)Cc2ccc(Nc3ncnc4c3ncn4[C@@H]3O[C@H](CO)[C@@H](O)[C@H]3O)cc2)cc1`, in experiment [1], the inhibition constant (Ki) was determined as 1.96 ± 0.06 nM. Still for that read-out and setting: under `NCCCCNC(=O)Cc1ccc(NC(=O)Cc2ccc(Nc3ncnc4c3ncn4[C@@H]3O[C@H](CO)[C@@H](O)[C@H]3O)cc2)cc1` stands 1.91 ± 0.17 nM.

Consider `NC(=O)N1c2ccccc2C=Cc2ccccc21` [carbamazepine], for which the “antagonistic properties at adenosine A1 receptors” value with adenosine A1 receptors is recorded as “marginal”. For `Cc1ccc(C(=O)NCCNC(=O)Cc2ccc(NC(=O)Cc3ccc(Nc4ncnc5c4ncn5[C@@H]4O[C@H](CO)[C@@H](O)[C@H]4O)cc3)cc2)cc1` [compound 4], the Ki in experiment [1] is 11.9 ± 2 nM.

`Cc1ccc(C(=O)NCCCNC(=O)Cc2ccc(NC(=O)Cc3ccc(Nc4ncnc5c4ncn5[C@@H]4O[C@H](CO)[C@@H](O)[C@H]4O)cc3)cc2)cc1` [compound 5] came in with a Ki in experiment [1] of 5.67 ± 0.055 nM. In experiment [1], `Cc1ccc(C(=O)NCCCCNC(=O)Cc2ccc(NC(=O)Cc3ccc(Nc4ncnc5c4ncn5[C@@H]4O[C@H](CO)[C@@H](O)[C@H]4O)cc3)cc2)cc1` [compound 6] registered an inhibition constant Ki of 7.95 ± 0.76 nM.
